According to paper PMC2248166, “Quantitative peptide binding motifs for 19 human and mouse MHC class I molecules derived using positional scanning combinatorial peptide libraries” (Immunome Research, 2008):

Key:
[1] = molecular target: HLA B*1501 (Homo sapiens, UniProt P01889, A329T/A93T/A95T/C349S/D201E/D98Y/E187L/E204Q/E69M/E70A/K202T/N87E/Q94N/R155S/R180W/S121R/S35A/S48A/V306I/V36M/Y140S/Y91S); assay: biochemical; format: binding
[2] = molecular target: HLA B*5802 (Homo sapiens, UniProt P01889, A329T/C349S/D201E/D98Y/E176V/E187L/E204Q/E69T/G107R/I218V/I90N/K202T/L105A/N104I/N87E/Q89R/Q94S/R106L/R155S/R180L/R86G/S101N/S121W/S35A/S48A/V127L/V306I/V36M/Y140S/Y91M); format: binding
[3] = molecular target: HLA B*1503 (Homo sapiens, UniProt P01889, A329T/A93T/A95T/C349S/D201E/D98Y/E187L/E204Q/K202T/N87E/Q94N/R155S/R180L/S121R/S35A/V306I/V36M/Y140S/Y91S); assay: biochemical; format: binding
[4] = molecular target: H-2 K^k (Mus musculus, UniProt P04223); format: binding
Sequence of H-2 K^k (P01887 21-119): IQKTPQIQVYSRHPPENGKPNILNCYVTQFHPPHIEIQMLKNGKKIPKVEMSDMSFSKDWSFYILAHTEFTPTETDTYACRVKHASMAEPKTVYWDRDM
Sequence of H-2 K^k (P04223 22-369): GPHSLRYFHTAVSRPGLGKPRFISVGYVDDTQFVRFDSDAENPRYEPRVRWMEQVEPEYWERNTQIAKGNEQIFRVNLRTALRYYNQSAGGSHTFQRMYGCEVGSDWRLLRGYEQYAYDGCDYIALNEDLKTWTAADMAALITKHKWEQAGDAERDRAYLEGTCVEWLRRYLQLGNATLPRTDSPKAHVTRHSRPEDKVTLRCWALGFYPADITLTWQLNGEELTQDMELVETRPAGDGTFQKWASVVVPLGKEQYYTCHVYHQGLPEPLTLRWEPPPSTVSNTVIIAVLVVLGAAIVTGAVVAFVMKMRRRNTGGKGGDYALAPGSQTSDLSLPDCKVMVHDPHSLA

[5] = molecular target: HLA A*3201 (Homo sapiens, UniProt P04439, A270S/D101S/D185E/E176V/E277Q/F133L/G103R/G107R/G231S/H175R/I121M/I218V/I322F/K168Q/L105A/L300P/L318F/M331R/P208A/P217A/Q94H/R106L/R138Q/S129P/T104I/T323A/T345S/V100E/V321M/V358M); assay: biochemical; format: binding
[6] = molecular target: HLA A*3001 (Homo sapiens, UniProt P04439, D140H/D185E/E176W/F33S/G80R/H175R/K168Q/R138E/R41S); assay: biochemical; format: binding
[7] = molecular target: HLA B*5401 (Homo sapiens, UniProt P01889, A329T/C349S/D138N/D201E/E176V/E187T/E204Q/E69G/I76V/K202T/L119W/R155S/R180L/S121T/S35A/S48A/V127L/V306I/V36M/Y140L); format: binding
[8] = molecular target: HLA B*0801 (Homo sapiens, UniProt P01889, A93T/A95T/D138N/E176V/E187T/K202T/Q94N/R180D/S35A/V36M/Y33D/Y91F); assay: biochemical; format: binding
[9] = molecular target: HLA B*2705 (Homo sapiens, UniProt P01889, D138H/D201E/E176V/E204Q/G107R/H137Y/K202T/N104T/N87E/Q56L/Q94K/R106L/R155S/R180L/S101D/S121N/S48T/Y140D/Y33H/Y91C); format: binding; conditions: positional scanning combinatorial 9-mer library; normalized to 1.0 for the best residue at each position
[10] = molecular target: HLA B*5301 (Homo sapiens, UniProt P01889, A329T/A93T/A95T/C349S/D201E/D98Y/E176V/E187L/E204Q/E69T/G107R/I218V/K202T/L105A/L119I/N104I/Q94N/R106L/R155S/R180L/S101N/S121R/S35A/S48A/T118I/V127L/V306I/V36M/Y140S/Y91F); format: binding
[11] = molecular target: HLA A*0201 (Homo sapiens, UniProt P04439, D140Y/D185E/D98H/E176V/E277Q/G131W/G231S/I119V/I121R/I166T/I218V/L300P/L318F/N151K/N90K/P208A/P217A/Q86G/Q94H/R138H/R169H/T345S); conditions: positional scanning combinatorial 9-mer library; normalized to 1.0 for the best residue at each position
[12] = molecular target: H-2 D^d (Mus musculus, UniProt P01900); format: binding
Sequence of H-2 D^d (P01900 whole entry, looked up): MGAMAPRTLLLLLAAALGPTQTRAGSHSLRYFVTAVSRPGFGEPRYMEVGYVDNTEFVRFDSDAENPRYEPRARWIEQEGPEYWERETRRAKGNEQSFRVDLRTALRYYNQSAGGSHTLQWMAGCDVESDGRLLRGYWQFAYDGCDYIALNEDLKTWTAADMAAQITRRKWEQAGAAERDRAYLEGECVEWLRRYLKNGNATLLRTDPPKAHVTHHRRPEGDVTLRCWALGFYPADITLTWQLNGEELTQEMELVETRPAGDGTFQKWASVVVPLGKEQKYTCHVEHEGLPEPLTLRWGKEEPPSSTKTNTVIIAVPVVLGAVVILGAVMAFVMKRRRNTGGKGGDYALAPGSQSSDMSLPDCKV

[13] = molecular target: HLA B*0702 (Homo sapiens, UniProt P01889); format: binding; conditions: positional scanning combinatorial 9-mer library; normalized to 1.0 for the best residue at each position
[14] = molecular target: HLA B*5801 (Homo sapiens, UniProt P01889, A329T/C349S/D201E/D98Y/E176V/E187L/E204Q/E69T/G107R/I218V/I90N/K202T/L105A/L119I/N104I/N87E/Q89R/Q94S/R106L/R155S/R180L/R86G/S101N/S121R/S35A/S48A/T118I/V127L/V306I/V36M/Y140S/Y91M); format: binding
[15] = molecular target: HLA A*6802 (Homo sapiens, UniProt P04439, A269V/D140Y/D185E/E176V/E277Q/E87N/F33Y/G231S/I121R/I166T/I218V/L180W/L300P/L318F/N151K/P208A/P217A/Q86R/R138H/R169H/S129P/T345S/V36M); format: binding
[16] = molecular target: H-2 D^b (Mus musculus, UniProt P01899); format: binding
Sequence of H-2 D^b (P01887 21-119): as the sequence (P01887 21-119) above
Sequence of H-2 D^b (P01899 25-362): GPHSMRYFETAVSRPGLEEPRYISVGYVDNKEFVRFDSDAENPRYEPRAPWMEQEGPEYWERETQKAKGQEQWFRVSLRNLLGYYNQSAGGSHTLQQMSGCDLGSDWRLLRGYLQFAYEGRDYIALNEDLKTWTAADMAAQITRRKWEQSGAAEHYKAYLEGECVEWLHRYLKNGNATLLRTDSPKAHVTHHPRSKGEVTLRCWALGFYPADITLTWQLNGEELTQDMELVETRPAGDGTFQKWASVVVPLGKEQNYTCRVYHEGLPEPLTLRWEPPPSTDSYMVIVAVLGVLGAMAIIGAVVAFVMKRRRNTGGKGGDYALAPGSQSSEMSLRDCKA

[17] = molecular target: HLA B*3501 (Homo sapiens, UniProt P01889, A329T/A93T/A95T/C349S/D201E/D98Y/E176V/E187L/E204Q/E69T/I218V/K202T/L119I/Q94N/R155S/R180L/S121R/S35A/S48A/T118I/V127L/V306I/V36M/Y140S/Y91F); format: binding
[18] = molecular target: HLA B*5101 (Homo sapiens, UniProt P01889, A329T/A93T/A95T/C349S/D138N/D201E/D98Y/E187L/E204Q/E69T/G107R/I218V/K202T/L105A/L119W/N104I/Q94N/R106L/R155S/R180L/S101N/S121T/S35A/S48A/V306I/V36M/Y195H/Y91F); format: binding

Sequence	Normalized average relative binding affinity (ARB), HLA B*1501 [1]	Normalized average relative binding affinity (ARB), HLA B*5802 [2]	Normalized average relative binding affinity (ARB), HLA B*1503 [3]	Normalized average relative binding affinity (ARB), H-2 Kk [4]	Normalized average relative binding affinity (ARB), HLA A*3201 [5]	Normalized average relative binding affinity (ARB), HLA A*3001 [6]	Normalized average relative binding affinity (ARB), HLA B*5401 [7]	Normalized average relative binding affinity (ARB), HLA B*0801 [8]	Normalized average relative binding affinity (ARB), HLA B*2705 [9]	Normalized average relative binding affinity (ARB), HLA B*5301 [10]	Normalized average relative binding affinity (ARB), HLA A*0201 [11]	Normalized average relative binding affinity (ARB), H-2 Dd [12]	Normalized average relative binding affinity (ARB), HLA B*0702 [13]	Normalized average relative binding affinity (ARB), HLA B*5801 [14]	Normalized average relative binding affinity (ARB), HLA A*6802 [15]	Normalized average relative binding affinity (ARB), H-2 Db [16]	Normalized average relative binding affinity (ARB), HLA B*3501 [17]	Normalized average relative binding affinity (ARB), HLA B*5101 [18]
XXDXXXXXX [3064.0043]	0.039	0.047	0.032	0.059	0.085	0.0018	0.0033	0.015	0.020	0.096	0.46	0.012	0.031	0.11	0.025	0.022	0.11	0.070
TXXXXXXXX [3064.0017]	0.13	0.062	0.14	0.65	0.11	0.050	0.026	0.076	0.12	0.027	0.094	0.25	0.12	0.12	0.29	0.096	0.14	0.089
MXXXXXXXX [3064.0011]	0.89	0.21	0.40	0.78	0.76	0.37	1.0	0.79	0.44	0.26	0.25	0.75	0.56	0.70	0.75	0.18	0.90	0.32
XXAXXXXXX [3064.0041]	0.23	0.047	0.29	0.0061	0.24	0.0077	0.00077	0.12	0.21	0.0065	0.43	0.0028	0.0097	0.32	0.0051	0.022	0.19	0.47
